Data reported in patent US12077503B2, “Substituted cyclic amides and their use as herbicides” (FMC CORPORATION, priority 2015, dated 2024).

Columns and labels:
Type in all cases: in vivo
[1] = tested on: barnyardgrass (Echinochloa crus-galli); assay: Test G Pre-Emergence Protocol; conditions: Echinochloa crus-galli, pre-emergence, 312 h, evaluated after 13 days; for pest or weed control at 15.625 g/ha: 15.625 g ai/ha; for pest or weed control at 15.625 g/ha / pest or weed control at 250 g/ha: read-out: Barnyardgrass damage rating (100=total damage to plant; 0=no damage to plant); for pest or weed control at 62.5 g/ha: 62.5 g ai/ha, 100=total damage to plant, 0=no damage to plant, read-out: Barnyardgrass damage rating; for pest or weed control at 250 g/ha: 250 g ai/ha
Outline: (§1)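 Glasshouse pre-emergence test: soil-sown seeds, sprayed after 1 d at 15.625, 62.5 or 250 g/ha. Conditions 24/16° C day/night, 14 h light, 65% humidity, watering twice daily. Rating 13 d post-spray (100 = total damage).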

[2] = tested on: corn (Zea mays); assay: Test G Pre-Emergence Protocol; conditions: Zea mays, pre-emergence, 312 h, evaluated after 13 days; for plant injury at 15.625 g/ha: 15.625 g ai/ha; for plant injury at 15.625 g/ha / plant injury at 250 g/ha: read-out: Corn damage rating (100=total damage to plant; 0=no damage to plant); for plant injury at 62.5 g/ha: 62.5 g ai/ha, 100=total damage to plant, 0=no damage to plant, read-out: Corn damage rating; for plant injury at 250 g/ha: 250 g ai/ha
Outline: as §1

[3] = tested on: giant foxtail (Setaria faberi); assay: Test G Pre-Emergence Protocol; conditions: Setaria faberi, pre-emergence, 312 h, evaluated after 13 days; for pest or weed control at 15.625 g/ha: 15.625 g ai/ha; for pest or weed control at 15.625 g/ha / pest or weed control at 250 g/ha: read-out: Foxtail, Giant damage rating (100=total damage to plant; 0=no damage to plant); for pest or weed control at 62.5 g/ha: 62.5 g ai/ha, 100=total damage to plant, 0=no damage to plant, read-out: Foxtail, Giant damage rating; for pest or weed control at 250 g/ha: 250 g ai/ha
Outline: as §1

[4] = tested on: ivy-leaved morning glory (Ipomoea hederacea); assay: Test G Pre-Emergence Protocol; conditions: Ipomoea, pre-emergence, 312 h, evaluated after 13 days; for pest or weed control at 15.625 g/ha: 15.625 g ai/ha; for pest or weed control at 15.625 g/ha / pest or weed control at 250 g/ha: read-out: Morningglory, Ivy-leaved damage rating (100=total damage to plant; 0=no damage to plant); for pest or weed control at 62.5 g/ha: 62.5 g ai/ha, 100=total damage to plant, 0=no damage to plant, read-out: Morningglory, Ivy-leaved damage rating; for pest or weed control at 250 g/ha: 250 g ai/ha
Outline: as §1

[5] = tested on: redroot pigweed (Amaranthus retroflexus); assay: Test G Pre-Emergence Protocol; conditions: Amaranthus retroflexus, pre-emergence, 312 h, evaluated after 13 days; for pest or weed control at 15.625 g/ha: 15.625 g ai/ha; for pest or weed control at 15.625 g/ha / pest or weed control at 250 g/ha: read-out: Pigweed, Redroot damage rating (100=total damage to plant; 0=no damage to plant); for pest or weed control at 62.5 g/ha: 62.5 g ai/ha, 100=total damage to plant, 0=no damage to plant, read-out: Pigweed, Redroot damage rating; for pest or weed control at 250 g/ha: 250 g ai/ha
Outline: as §1

[6] = tested on: velvetleaf (Abutilon theophrasti); assay: Test G Pre-Emergence Protocol; conditions: Abutilon theophrasti, pre-emergence, 312 h, evaluated after 13 days; for pest or weed control at 15.625 g/ha: 15.625 g ai/ha; for pest or weed control at 15.625 g/ha / pest or weed control at 250 g/ha: read-out: Velvetleaf damage rating (100=total damage to plant; 0=no damage to plant); for pest or weed control at 62.5 g/ha: 62.5 g ai/ha, 100=total damage to plant, 0=no damage to plant, read-out: Velvetleaf damage rating; for pest or weed control at 250 g/ha: 250 g ai/ha
Outline: as §1

[7] = tested on: barnyardgrass (Echinochloa crus-galli); assay: Test G Post-Emergence Protocol; conditions: Echinochloa crus-galli, post-emergence, 312 h, read-out: Barnyardgrass damage rating; for pest or weed control at 15.625 g/ha: 15.625 g ai/ha, evaluated after 13 days (100=total damage to plant; 0=no damage to plant); for pest or weed control at 62.5 g/ha: 62.5 g ai/ha; for pest or weed control at 62.5 g/ha / pest or weed control at 250 g/ha: evaluated after 13 days, 100=total damage to plant, 0=no damage to plant; for pest or weed control at 250 g/ha: 250 g ai/ha
Outline: (§2)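 Values are percent visual injury at 13 days after treatment (0 none, 100 total). Treatment was a post-emergence spray at 15.625, 62.5 or 250 g/ha on 8-day-old pot plants kept at 24/16 °C.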

[8] = tested on: corn (Zea mays); assay: Test G Post-Emergence Protocol; conditions: Zea mays, post-emergence, 312 h, read-out: Corn damage rating; for plant injury at 15.625 g/ha: 15.625 g ai/ha, evaluated after 13 days (100=total damage to plant; 0=no damage to plant); for plant injury at 62.5 g/ha: 62.5 g ai/ha; for plant injury at 62.5 g/ha / plant injury at 250 g/ha: evaluated after 13 days, 100=total damage to plant, 0=no damage to plant; for plant injury at 250 g/ha: 250 g ai/ha
Outline: as §2

[9] = tested on: giant foxtail (Setaria faberi); assay: Test G Post-Emergence Protocol; conditions: Setaria faberi, post-emergence, 312 h, read-out: Foxtail, Giant damage rating; for pest or weed control at 15.625 g/ha: 15.625 g ai/ha, evaluated after 13 days (100=total damage to plant; 0=no damage to plant); for pest or weed control at 62.5 g/ha: 62.5 g ai/ha
Outline: as §2

[10] = tested on: ivy-leaved morning glory (Ipomoea hederacea); assay: Test G Post-Emergence Protocol; conditions: Ipomoea, post-emergence, 312 h, read-out: Morningglory, Ivy-leaved damage rating; for pest or weed control at 15.625 g/ha: 15.625 g ai/ha, evaluated after 13 days (100=total damage to plant; 0=no damage to plant); for pest or weed control at 62.5 g/ha: 62.5 g ai/ha; for pest or weed control at 62.5 g/ha / pest or weed control at 250 g/ha: evaluated after 13 days, 100=total damage to plant, 0=no damage to plant; for pest or weed control at 250 g/ha: 250 g ai/ha
Outline: as §2

[11] = tested on: redroot pigweed (Amaranthus retroflexus); assay: Test G Post-Emergence Protocol; conditions: Amaranthus retroflexus, post-emergence, 312 h, read-out: Pigweed, Redroot damage rating; for pest or weed control at 15.625 g/ha: 15.625 g ai/ha, evaluated after 13 days (100=total damage to plant; 0=no damage to plant); for pest or weed control at 62.5 g/ha: 62.5 g ai/ha; for pest or weed control at 62.5 g/ha / pest or weed control at 250 g/ha: evaluated after 13 days, 100=total damage to plant, 0=no damage to plant; for pest or weed control at 250 g/ha: 250 g ai/ha
Outline: as §2

[12] = tested on: velvetleaf (Abutilon theophrasti); assay: Test G Post-Emergence Protocol; conditions: Abutilon theophrasti, post-emergence, 312 h, read-out: Velvetleaf damage rating; for pest or weed control at 15.625 g/ha: 15.625 g ai/ha, evaluated after 13 days (100=total damage to plant; 0=no damage to plant); for pest or weed control at 62.5 g/ha: 62.5 g ai/ha; for pest or weed control at 62.5 g/ha / pest or weed control at 250 g/ha: evaluated after 13 days, 100=total damage to plant, 0=no damage to plant; for pest or weed control at 250 g/ha: 250 g ai/ha
Outline: as §2

[13] = evaluated after 13 days, 100=total damage to plant, 0=no damage to plant

| SMILES | pest or weed control at 15.625 g/ha [1] | pest or weed control at 62.5 g/ha [1] | pest or weed control at 250 g/ha [1] | plant injury at 15.625 g/ha [2] | plant injury at 62.5 g/ha [2] | plant injury at 250 g/ha [2] | pest or weed control at 15.625 g/ha [3] | pest or weed control at 62.5 g/ha [3] | pest or weed control at 250 g/ha [3] | pest or weed control at 15.625 g/ha [4] | pest or weed control at 62.5 g/ha [4] | pest or weed control at 250 g/ha [4] | pest or weed control at 15.625 g/ha [5] | pest or weed control at 62.5 g/ha [5] | pest or weed control at 250 g/ha [5] | pest or weed control at 15.625 g/ha [6] | pest or weed control at 62.5 g/ha [6] | pest or weed control at 250 g/ha [6] | pest or weed control at 15.625 g/ha [7] | pest or weed control at 62.5 g/ha [7] | also measured |
| --- | --- | --- | --- | --- | --- | --- | --- | --- | --- | --- | --- | --- | --- | --- | --- | --- | --- | --- | --- | --- | --- |
| COc1ccc(C2CN(C)C(=O)C2C(=O)Nc2cccc(F)c2F)cc1C (centres unmarked) [Compound 1688] | 50% | 70% | 90% | 0% | 50% | 70% | 70% | 80% | 90% | 0% | 0% | 10% | 30% | 20% | 60% | 10% | 0% | 50% | 30% | 70% | pest or weed control at 250 g/ha [7]: 90%; plant injury at 15.625 g/ha [8]: 0%; plant injury at 62.5 g/ha [8]: 30%; plant injury at 250 g/ha [8]: 60%; pest or weed control at 15.625 g/ha [9]: 60%; pest or weed control at 62.5 g/ha [9, 13]: 80%; pest or weed control at 15.625 g/ha [10]: 0%; pest or weed control at 62.5 g/ha [10]: 20%; pest or weed control at 250 g/ha [10]: 60%; pest or weed control at 15.625 g/ha [11]: 0%; pest or weed control at 62.5 g/ha [11]: 0%; pest or weed control at 250 g/ha [11]: 10%; pest or weed control at 15.625 g/ha [12]: 0%; pest or weed control at 62.5 g/ha [12]: 0%; pest or weed control at 250 g/ha [12]: 10% |
| COc1cc(Cl)cc(C2CN(C)C(=O)C2C(=O)Nc2cccc(F)c2F)c1 (centres unmarked) [Compound 1690] | 50% | 80% | 90% | 0% | 20% | 70% | 70% | 80% | 90% | 0% | 0% | 0% | 0% | 0% | 20% | 0% | 0% | 30% | 70% | 80% | pest or weed control at 250 g/ha [7]: 90%; plant injury at 15.625 g/ha [8]: 10%; plant injury at 62.5 g/ha [8]: 70%; plant injury at 250 g/ha [8]: 80%; pest or weed control at 15.625 g/ha [9]: 80%; pest or weed control at 62.5 g/ha [9, 13]: 80%; pest or weed control at 250 g/ha ([9]; 250 g ai/ha, evaluated after 13 days, 100=total damage to plant, 0=no damage to plant): 90%; pest or weed control at 15.625 g/ha [10]: 20%; pest or weed control at 62.5 g/ha [10]: 70%; pest or weed control at 250 g/ha [10]: 60%; pest or weed control at 15.625 g/ha [11]: 0%; pest or weed control at 62.5 g/ha [11]: 20%; pest or weed control at 250 g/ha [11]: 40%; pest or weed control at 15.625 g/ha [12]: 0%; pest or weed control at 62.5 g/ha [12]: 20%; pest or weed control at 250 g/ha [12]: 40% |
